In patent US9505768B2, “Compositions and methods for modulating TLR4” (The Regents of the University of California, priority 2012, dated 2016):

Experiments:
Assay type in all cases: cell-based
mouse TLR4 = molecular target: T1, mouse TLR4 (Mus musculus, UniProt Q9JHF9+Q9QUK6); experiment: Murine TLR4 HEK Blue NFκB/SEAP reporter assay; conditions: mTLR4 HEK transfectoma, 312 nM to 10 μM; Cmpd 1 set at 100
T1 construct: host or cells: HEK293 (HEK Blue) cells with NFκB/SEAP reporter
T1 sequence (Q9QUK6 26-835): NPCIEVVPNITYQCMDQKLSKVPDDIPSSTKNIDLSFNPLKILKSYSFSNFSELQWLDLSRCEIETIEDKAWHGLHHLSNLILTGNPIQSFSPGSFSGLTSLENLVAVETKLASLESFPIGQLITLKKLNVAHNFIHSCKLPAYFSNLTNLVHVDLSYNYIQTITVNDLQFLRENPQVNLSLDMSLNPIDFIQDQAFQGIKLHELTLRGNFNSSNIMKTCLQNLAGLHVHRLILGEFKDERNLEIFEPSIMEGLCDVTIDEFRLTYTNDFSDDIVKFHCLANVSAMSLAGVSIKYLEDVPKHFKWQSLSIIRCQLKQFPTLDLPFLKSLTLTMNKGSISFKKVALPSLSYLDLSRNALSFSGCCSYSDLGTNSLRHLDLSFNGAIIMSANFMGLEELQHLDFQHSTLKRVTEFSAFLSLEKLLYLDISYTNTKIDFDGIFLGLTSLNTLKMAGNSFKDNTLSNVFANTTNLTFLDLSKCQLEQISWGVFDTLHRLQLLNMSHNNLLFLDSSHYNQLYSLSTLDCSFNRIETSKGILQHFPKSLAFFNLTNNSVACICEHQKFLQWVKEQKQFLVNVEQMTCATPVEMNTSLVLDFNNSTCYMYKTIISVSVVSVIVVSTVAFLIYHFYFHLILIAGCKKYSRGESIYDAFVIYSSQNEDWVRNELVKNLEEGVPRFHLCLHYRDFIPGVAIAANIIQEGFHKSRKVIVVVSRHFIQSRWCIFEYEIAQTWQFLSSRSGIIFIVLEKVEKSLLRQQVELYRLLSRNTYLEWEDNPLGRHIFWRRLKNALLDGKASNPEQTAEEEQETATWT
T1 sequence (Q9JHF9 19-160): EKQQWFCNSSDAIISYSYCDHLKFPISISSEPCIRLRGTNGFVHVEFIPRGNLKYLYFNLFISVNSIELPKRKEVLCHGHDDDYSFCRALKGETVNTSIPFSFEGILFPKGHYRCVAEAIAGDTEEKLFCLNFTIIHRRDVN
Description: (§1) The above assays were utilized to compare the derivatives of the lead pyrimidoindole for their ability to activate mouse and human TLR4. […] Each cytokine induction curve was first converted to a percent activity curve, and then the AUC of the percent activity curve was calculated. The process of converting to a percent activity curve allowed subtracting background and adjusting for plate-to-plate variation.
(§2) The culture supernatants were harvested after a 20-24 h incubation period. SEAP activity in the supernatants was determined by a colorimetric assay, using either the SEAPorter Assay Kit (Imgenex), with absorbance read at 405 nm, or QuantiBlue (Invivogen), with absorbance read at 630 nm.

human TLR4 = molecular target: T2, human TLR4 (Homo sapiens, UniProt O00206+Q9Y6Y9); experiment: Human TLR4 HEK Blue NFκB/SEAP reporter assay; conditions: hTLR4 HEK293 transfectoma; all compounds tested at 10 μM; Cmpd 1 set at 100
T2 construct: host or cells: HEK293 (HEK Blue) cells with NFκB/SEAP reporter
T2 sequence (O00206 24-839): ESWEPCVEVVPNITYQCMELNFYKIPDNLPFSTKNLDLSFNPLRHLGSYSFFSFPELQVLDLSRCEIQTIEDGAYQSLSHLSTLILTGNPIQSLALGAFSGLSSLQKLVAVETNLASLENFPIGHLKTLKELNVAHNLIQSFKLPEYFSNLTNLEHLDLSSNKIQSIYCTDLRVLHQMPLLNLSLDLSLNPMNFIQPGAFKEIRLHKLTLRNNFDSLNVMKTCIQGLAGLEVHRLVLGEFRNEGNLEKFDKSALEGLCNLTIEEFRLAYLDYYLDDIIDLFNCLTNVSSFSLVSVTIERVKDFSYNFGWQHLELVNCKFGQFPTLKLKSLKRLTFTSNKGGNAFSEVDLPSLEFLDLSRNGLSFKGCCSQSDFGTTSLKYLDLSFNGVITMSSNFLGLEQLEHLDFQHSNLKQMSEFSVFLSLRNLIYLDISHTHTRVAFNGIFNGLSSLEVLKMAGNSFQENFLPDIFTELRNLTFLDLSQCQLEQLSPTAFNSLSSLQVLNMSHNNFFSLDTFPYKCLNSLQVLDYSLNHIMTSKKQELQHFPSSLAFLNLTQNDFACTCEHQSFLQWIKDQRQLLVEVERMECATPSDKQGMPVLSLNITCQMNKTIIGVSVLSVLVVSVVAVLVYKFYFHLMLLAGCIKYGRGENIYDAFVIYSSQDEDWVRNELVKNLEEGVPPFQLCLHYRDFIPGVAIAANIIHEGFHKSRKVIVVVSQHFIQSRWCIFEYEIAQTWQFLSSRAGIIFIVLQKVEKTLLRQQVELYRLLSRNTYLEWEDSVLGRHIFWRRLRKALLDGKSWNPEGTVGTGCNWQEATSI
T2 sequence (Q9Y6Y9 19-160): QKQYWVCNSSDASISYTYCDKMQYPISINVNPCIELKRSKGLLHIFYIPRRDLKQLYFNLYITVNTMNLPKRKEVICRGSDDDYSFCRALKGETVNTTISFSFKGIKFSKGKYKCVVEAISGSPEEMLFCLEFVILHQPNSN
Description: as §1, §2

[1] = system: mouse bone marrow derived dendritic cells (mBMDC); experiment: IL-6 induction in mouse bone marrow derived dendritic cells (ELISA); conditions: relative to Cmpd 1 / within series
Description: as §1
BMDC were prepared from C57BL/6 mice as described. See e.g., Wu, C. […] BMDC (10^5 cells per well) were plated in 96-well plates in 200 μL of complete RPMI1640 supplemented with 10% fetal calf serum (FCS; Sigma Aldrich), 100 U/mL penicillin, and 100 μg/mL streptomycin (Invitrogen). […] After 18 h incubation, the cell culture supernatants were collected. LPS (purified LPS, Invivogen, San Diego, Calif.) or MPLA (1 μg/mL synthetic MPLA, Invivogen, San Diego, Calif.) were used as positive controls. […] The AUC was calculated from BMDC dose-response curves using Prism 5 (GraphPad, San Diego). Each cytokine induction curve was first converted to a percent activity curve, and then the AUC of the percent activity curve was calculated. The process of converting to a percent activity curve allowed subtracting background and adjusting for plate-to-plate variation.

| SMILES | mouse TLR4, area under curve (AUC) values normalized to Cmpd 1 (mouse TLR4) | human TLR4, values normalized to Cmpd 1 (human TLR4) | IL-6 activity in mBMDC (in words) [1] |
| --- | --- | --- | --- |
| O=C(CSc1nc2c([nH]c3ccccc32)c(=O)n1-c1ccccc1)NC1CCCC1 [Compound 11, N-cyclopentyl-2-((4-oxo-3-phenyl-4,5-dihydro-3H-pyrimido[5,4-b]indol-2-yl)thio)acetamide] | 28 | 23 | – |
| O=C(CSc1nc2c([nH]c3ccccc32)c(=O)n1-c1ccccc1)Nc1ccc2ccccc2c1 [Compound 18, N-(naphthalen-2-yl)-2-((4-oxo-3-phenyl-4,5-dihydro-3H-pyrimido[5,4-b]indol-2-yl)thio)acetamide] | 2 | 21 | – |
| O=C(CSc1nc2c([nH]c3ccccc32)c(=O)n1-c1ccccc1)NCc1ccco1 [Compound 19, N-(furan-2-ylmethyl)-2-((4-oxo-3-phenyl-4,5-dihydro-3H-pyrimido[5,4-b]indol-2-yl)thio)acetamide] | 5 | 27 | – |
| O=C(CSc1nc2c([nH]c3ccccc32)c(=O)n1-c1ccccc1)Nc1ccc2cn[nH]c2c1 [Compound 20, N-(1H-indazol-6-yl)-2-((4-oxo-3-phenyl-4,5-dihydro-3H-pyrimido[5,4-b]indol-2-yl)thio)acetamide] | <1 | <1 | – |
| O=C(CSc1nc2c([nH]c3ccccc32)c(=O)n1-c1ccccc1)Nc1nccs1 [Compound 21, 2-((4-oxo-3-phenyl-4,5-dihydro-3H-pyrimido[5,4-b]indol-2-yl)thio)-N-(thiazol-2-yl)acetamide] | 2 | 12 | – |
| CCNC(=O)CSc1nc2c([nH]c3ccccc32)c(=O)n1-c1ccccc1 [Compound 22, N-ethyl-2-((4-oxo-3-phenyl-4,5-dihydro-3H-pyrimido[5,4-b]indol-2-yl)thio)acetamide] | <1 | 8 | – |
| CCCCNC(=O)CSc1nc2c([nH]c3ccccc32)c(=O)n1-c1ccccc1 [Compound 23, N-butyl-2-((4-oxo-3-phenyl-4,5-dihydro-3H-pyrimido[5,4-b]indol-2-yl)thio)acetamide] | 31 | 32 | somewhat less active |
| CCCCCNC(=O)CSc1nc2c([nH]c3ccccc32)c(=O)n1-c1ccccc1 [Compound 24, 2-((4-oxo-3-phenyl-4,5-dihydro-3H-pyrimido[5,4-b]indol-2-yl)thio)-N-pentylacetamide] | 42 | 23 | – |
| CCCCCCNC(=O)CSc1nc2c([nH]c3ccccc32)c(=O)n1-c1ccccc1 [Compound 25, N-hexyl-2-((4-oxo-3-phenyl-4,5-dihydro-3H-pyrimido[5,4-b]indol-2-yl)thio)acetamide] | 4 | 8 | – |
| CC(C)CNC(=O)CSc1nc2c([nH]c3ccccc32)c(=O)n1-c1ccccc1 [Compound 26, N-isobutyl-2-((4-oxo-3-phenyl-4,5-dihydro-3H-pyrimido[5,4-b]indol-2-yl)thio)acetamide] | 24 | 21 | somewhat less active |
| CC(C)CCNC(=O)CSc1nc2c([nH]c3ccccc32)c(=O)n1-c1ccccc1 [Compound 27, N-isopentyl-2-((4-oxo-3-phenyl-4,5-dihydro-3H-pyrimido[5,4-b]indol-2-yl)thio)acetamide] | 56 | 38 | somewhat less active |
| CCC(CC)NC(=O)CSc1nc2c([nH]c3ccccc32)c(=O)n1-c1ccccc1 [Compound 31, 2-((4-oxo-3-phenyl-4,5-dihydro-3H-pyrimido[5,4-b]indol-2-yl)thio)-N-(pentan-3-yl)acetamide] | 8 | 11 | – |
| CC(C)(C)NC(=O)CSc1nc2c([nH]c3ccccc32)c(=O)n1-c1ccccc1 [Compound 32, N-(tert-butyl)-2-((4-oxo-3-phenyl-4,5-dihydro-3H-pyrimido[5,4-b]indol-2-yl)thio)acetamide] | <1 | 6 | – |
| O=C(CSc1nc2c([nH]c3ccccc32)c(=O)n1-c1ccccc1)NC1CCNCC1 [Compound 34, 2-((4-oxo-3-phenyl-4,5-dihydro-3H-pyrimido[5,4-b]indol-2-yl)thio)-N-(piperidin-4-yl)acetamide] | <1 | <1 | – |
| CCCCCCCC/C=C\CCCCCCCC(=O)OCC(COP(=O)(O)OCCNC(=O)CSc1nc2c([nH]c3ccccc32)c(=O)n1-c1ccccc1)OC(=O)CCCCCCC/C=C\CCCCCCCC (stereo not drawn) [Compound 35, (Z)-3-((hydroxy(2-(2-((4-oxo-3-phenyl-4,5-dihydro-3H-pyrimido[5,4-b]indol-2-yl)thio)acetamido)ethoxy)phosphoryl)oxy)propane-1,2-diyl dioleate] | <1 | <1 | – |
| O=C(CSc1nc2c([nH]c3ccccc32)c(=O)n1C1CCCCC1)NC1CCCCC1 [Compound 36, N-cyclohexyl-2-((3-cyclohexyl-4-oxo-4,5-dihydro-3H-pyrimido[5,4-b]indol-2-yl)thio)acetamide] | 56 | 40 | some loss of activity |
| O=C(CSc1nc2c([nH]c3ccccc32)c(=O)n1-c1ccc2ccccc2c1)NC1CCCCC1 [Compound 39, N-cyclohexyl-2-((3-(naphthalen-2-yl)-4-oxo-4,5-dihydro-3H-pyrimido[5,4-b]indol-2-yl)thio)acetamide] | 6 | 3 | total loss of activity |
| O=C(CSc1nc2c([nH]c3ccccc32)c(=O)n1CCc1ccccc1)NC1CCCCC1 [Compound 40, N-cyclohexyl-2-((4-oxo-3-phenethyl-4,5-dihydro-3H-pyrimido[5,4-b]indol-2-yl)thio)acetamide] | 1 | 1 | total loss of activity |
| CCCCCn1c2ccccc2c2nc(SCC(=O)NC3CCCCC3)n(-c3ccccc3)c(=O)c21 [Compound 49, N-cyclohexyl-2-((4-oxo-5-pentyl-3-phenyl-4,5-dihydro-3H-pyrimido[5,4-b]indol-2-yl)thio)acetamide] | 6 | 11 | – |
| CCCCCCCCCCCCn1c2ccccc2c2nc(SCC(=O)NC3CCCCC3)n(-c3ccccc3)c(=O)c21 [Compound 50, N-cyclohexyl-2-((5-dodecyl-4-oxo-3-phenyl-4,5-dihydro-3H-pyrimido[5,4-b]indol-2-yl)thio)acetamide] | 4 | 10 | – |
| NC(=O)Cn1c2ccccc2c2nc(SCC(=O)NC3CCCCC3)n(-c3ccccc3)c(=O)c21 [Compound 52, 2-((5-(2-amino-2-oxoethyl)-4-oxo-3-phenyl-4,5-dihydro-3H-pyrimido[5,4-b]indol-2-yl)thio)-N-cyclohexylacetamide] | 8 | 11 | – |
